Experimental data published in patent US20110178072A1, “STEREOSPECIFICITY OF METHYLSULFINYL REDUCTION” (priority 2008, published 2011).

How the values were obtained:
[1] = system: yeast fRMsr-transfected SK-Hep1 cells; experiment: Growth and morphology of yeast fRMsr-expressing SK-Hep1 cells on Met sulfoxide media; format: cell-based, human; conditions: 0.1 mM
Procedure: Proliferation Assay-Cell growth was quantified using colorimetric MTS assay (Promega). Cells in regular DMEM medium were plated in 96-well plates at 5×10^3 cells/well, washed with PBS, and specialized DMEM media were added that contained Met, Met-SO, Met-RO, or Met-RSO 24 hours after plating. To assay for cell proliferation, a tetrazolium compound [3-(4,5-dimethylthiazol-2-yl)-5-(3-carboxymethoxyphenyl)-2-(4-sulfophenyl)-2H-tetrazolium, inner salt; MTS] and an electron coupling reagent (phenazine methosulfate; PMS) were mixed according to the manufacturer's protocol and then 20 μL of the mixture were added to 100 μL of phenol red-excluded media that further replaced cell culture media. After 90 minutes of incubation at 37° C. in the atmosphere of 5% CO2, cell proliferation was measured at indicated time periods from 0 to 96 hours at 450 nm in a plate reader. Direct counting of viable cells using 0.2% trypan blue was done in 6-well plates. Transfection of […] into SK-Hep1 cells-[…]-tag sequence was cloned at the C-terminus of […] sequence was inserted into a mammalian expression vector, pCI-neo (Promega), and the resulting construct was verified by DNA sequencing. […] To establish a stable cell line, cells were selected in the presence of 800 μg/mL G418 sulfate (Promega), and further maintained in the presence of 400 μg/mL G418 sulfate. […]

[2] = biological target: T1, yeast fRMsr (Saccharomyces cerevisiae, UniProt P36088); experiment: Activity assay of purified recombinant yeast fRMsr towards free Met sulfoxides (HPLC, OPA derivatization); format: biochemical, S. cerevisiae; conditions: for Activity of recombinant yeast fRMsr protein towards the substrate: recombinant His-tagged yeast fRMsr; for Specific activity for each Met-O: yfRMsr (yeast free methionine R-sulfoxide reductase), ± standard deviations from 3 independent experiments
T1 construct: His-tag (C); made in house; host or cells: E. coli BL21 (DE3), pET21b
T1 sequence (P36088 1-180): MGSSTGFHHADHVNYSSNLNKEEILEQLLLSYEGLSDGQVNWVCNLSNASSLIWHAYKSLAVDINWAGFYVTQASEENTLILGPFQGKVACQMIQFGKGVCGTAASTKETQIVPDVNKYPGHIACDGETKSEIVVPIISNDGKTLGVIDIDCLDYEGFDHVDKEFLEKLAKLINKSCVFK
Source text: Cloning and expression of yeast fRMsr—Characterization of S. cerevisiae fRMsr (YKL069W) is described in Le, D. T., et al. (2009) Functional analysis of free methionine-R-sulfoxide reductase from Saccharomyces cerevisiae. J Biol Chem., 284(7), 4354-4364. Briefly, a yeast fRMsr cDNA, which encodes a protein homologous to fRMsr from E. coli, was amplified from S. cerevisiae genomic DNA and subcloned into pET21b vector (Novagen) using primers 5′-AAACATATGATGGGCTCATCAACCGGGTTTC-3′ (sense; SEQ ID NO:1) and 5′-AAGCGGCCGCGACACATGATTTATTAATTAATTTAGCAAG-3′ (antisense; SEQ ID NO:2). After transformation into BL21 (DE3) E. coli, the subcloned sequence was verified by DNA sequencing. Cells with the plasmid in 500 mL LB medium containing 100 μg/mL ampicillin were grown until OD600 reached 0.6-0.8, followed by addition of IPTG to 0.3 mM. Protein expression was at 30° C. for 4 hours, followed by harvesting cells by centrifugation at 4,000 rpm for 5 minutes. Cells were washed with PBS and stored at −70° C. until use.
To purify the protein, a cell pellet was dissolved in resuspension buffer (Tris-HCl, pH 7.5, 15 mM imidazole, 300 mM NaCl), and PMSF was added to a final concentration of 0.5 mM. After sonication, the supernatant was collected by centrifugation at 8,000 rpm for 30 minutes. The supernatant was loaded onto a cobalt Talon resin (Clontech) pre-equilibrated with resuspension buffer. Following washing with the same buffer, the protein was eluted with elution buffer (Tris-HCl, pH 7.5, 300 mM imidazole, 300 mM NaCl). Fractions containing yeast fRMsr were pooled together and dialyzed overnight against PBS in a dialysis cassette (Pierce).
Activity assays of fRMsr—Reaction mixture (40 μL) included 50 mM DTT, 1 mM substrate (Met-RO or Met-SO), and purified enzyme or cell lysate prepared by treatment with CelLytic™M cell lysis reagent (Sigma). 20 μL of the reaction mixture was mixed with 2 μL of TCA and subjected to OPA derivatization as described above and then injected onto the column to measure endogenous Met level in the samples. An additional 20 μL from the same original reaction mixture were incubated at 37° C. for 30 minutes and then subjected to OPA derivatization by the same procedure using TCA. After derivatization of the sample (2-5 μL) by adding OPA solution to 100 μL as a final volume, 50 μL of the mixture were subjected to an HPLC separation as described above.

[3] = system: selenoproteins; experiment: 75Se metabolic labeling of SK-Hep1 cells grown on Met and Met sulfoxide media; format: cell-based, human; conditions: 0.1 mM of each amino acid
Procedure: ^75 Se Metabolic labeling—SK-Hep1 cells were plated in 6-well plates at 7.5×10^4 cells/well in 1.5 mL of regular DMEM medium. After 24 hours, cells were washed with PBS and the medium was changed to modified DMEM media containing Met, Met-SO, Met-RO, or Met-RSO (0.1 mM of each amino acid). 0.01 mCi of freshly neutralized [^75Se]selenious acid (specific activity 1,000 Ci/mmol, University of Missouri Research Reactor) was added in each well at 48 hours after changing the medium and cells were incubated at 37° C. for 24 hours in 5% CO2 atmosphere, followed by harvesting the cells. Cell extracts (30 μg of total protein) were electrophoresed on 10% Bis-Tris gels and transferred onto PVDF membranes (Invitrogen). The ^75Se radioactivity pattern was visualized by using a PhosphorImager (GE Health Care).

Activity of recombinant yeast fRMsr protein towards the substrate [2] | Compound | Growth of fRMsr-transfected cells [1] | Specific activity for each Met-O [2] | Selenoprotein patterns (75Se labeling) [3]
≈ 33 nmol/min/mg protein | C[S@@+]([O-])CC[C@H](N)C(=O)O [Met-RO, methionine-R-sulfoxide] | essentially indistinguishable from that of cells grown in the presence of Met | 30015 ± 2652 pmol/min/mg | No difference was observed
inactive | C[S@+]([O-])CC[C@H](N)C(=O)O [Met-SO, methionine-S-sulfoxide] | essentially indistinguishable from that of cells grown in the presence of Met | ND* (A signal corresponding to specific activity less than 5 pmol/min/mg is shown as ND (Not Detectable)) | No difference was observed
